Assay results from ChEMBL document CHEMBL1137031, “Synthesis and antibacterial activity of C-6 carbamate ketolides, a novel series of orally active ketolide antibiotics” (2004).
In brackets after ≈: the same amount, converted by molar mass.

What was measured:
Staphylococcus aureus [1] = assay: Minimum inhibitory concentration against Staphylococcus aureus OC4172; format: functional
Streptococcus pneumoniae [2] = assay: Minimum inhibitory concentration against Streptococcus pneumoniae OC4051
Mus musculus [3] = assay: Percent survival of Staphylococcus aureus infected murine was tested after subcutaneous injection of 10 mg/kg dose; format: functional; conditions: sc
Streptococcus pneumoniae [4] = assay: Minimum inhibitory concentration against Streptococcus pneumoniae OC9132
[5] = system: Staphylococcus haemolyticus; assay: Minimum inhibitory concentration against Staphylococcus haemolyticus OC4545
Mus musculus [6] = assay: Percent survival of Staphylococcus aureus infected murine was tested after peroral injection of 20 mg/kg dose; format: functional; conditions: route oral
Streptococcus pneumoniae [7] = assay: Minimum inhibitory concentration against Streptococcus pneumoniae OC4421
[8] = system: Staphylococcus haemolyticus; assay: Minimum inhibitory concentration against Staphylococcus haemolyticus OC3882
Haemophilus influenzae = assay: Minimum inhibitory concentration against Haemophilus influenzae OC4482
Staphylococcus aureus [9] = assay: Minimum inhibitory concentration against Staphylococcus aureus OC4172 in presence of mouse serum; format: functional
Mus musculus [10] = assay: Effective dose against Staphylococcus aureus infected murine was tested after subcutaneous injection; format: functional; conditions: sc
Mus musculus [11] = organism: Mus musculus; assay: Effective dose against Staphylococcus aureus infected murine was tested after peroral injection; format: functional

| SMILES | MIC (Staphylococcus aureus [1]) | MIC (Streptococcus pneumoniae [2]) | survival at 10 mg/kg (Mus musculus [3]) | MIC (Streptococcus pneumoniae [4]) | MIC [5] | survival at 20 mg/kg (Mus musculus [6]) | MIC (Streptococcus pneumoniae [7]) | MIC [8] | MIC (Haemophilus influenzae) | MIC (Staphylococcus aureus [9]) | ED50 (Mus musculus [10]) | ED50 (Mus musculus [11]) |
| --- | --- | --- | --- | --- | --- | --- | --- | --- | --- | --- | --- | --- |
| CC[C@H]1OC(=O)C(C)C(=O)[C@H](C)[C@@H](O[C@@H]2O[C@H](C)C[C@H](N(C)C)[C@H]2O)[C@](C)(OC(=O)N/C=C/c2ccc(-c3ccccn3)cc2)C[C@@H](C)C(=O)[C@H](C)[C@H]2NC(=O)O[C@@]21C (stereo partly specified) | 0.12 µg/mL (≈ 0.146 µM) | 0.06 µg/mL (≈ 0.0731 µM) | 80% | 0.03 µg/mL (≈ 0.0365 µM) | > 16 µg/mL | 20% | 0.06 µg/mL (≈ 0.0731 µM) | 0.12 µg/mL (≈ 0.146 µM) | 4 µg/mL (≈ 4.87 µM) | 0.5 µg/mL |  |  |
| CC[C@H]1OC(=O)C(C)C(=O)[C@H](C)[C@@H](O[C@@H]2O[C@H](C)C[C@H](N(C)C)[C@H]2O)[C@](C)(OC(=O)N/C=C/c2ccc(-c3ccccc3)cc2)C[C@@H](C)C(=O)[C@H](C)[C@H]2NC(=O)O[C@@]21C (stereo partly specified) | 0.5 µg/mL (≈ 0.61 µM) | 0.5 µg/mL (≈ 0.61 µM) |  | 0.06 µg/mL (≈ 0.0732 µM) | > 16 µg/mL |  | 0.25 µg/mL (≈ 0.305 µM) | 1 µg/mL (≈ 1.22 µM) | 8 µg/mL (≈ 9.76 µM) | 2 µg/mL |  |  |
| CC[C@H]1OC(=O)C(C)C(=O)[C@H](C)[C@@H](O[C@@H]2O[C@H](C)C[C@H](N(C)C)[C@H]2O)[C@](C)(OC(=O)N/C=C/c2ccc3ccccc3n2)C[C@@H](C)C(=O)[C@H](C)[C@H]2NC(=O)O[C@@]21C (stereo partly specified) | 0.25 µg/mL (≈ 0.314 µM) | 0.03 µg/mL (≈ 0.0377 µM) | 75% | ≤ 0.01 µg/mL | > 16 µg/mL | 25% | 0.06 µg/mL (≈ 0.0755 µM) | 0.25 µg/mL (≈ 0.314 µM) | 4 µg/mL (≈ 5.03 µM) | 0.5 µg/mL |  |  |
| CC[C@H]1OC(=O)C(C)C(=O)[C@H](C)[C@@H](O[C@@H]2O[C@H](C)C[C@H](N(C)C)[C@H]2O)[C@](C)(OC(N)=O)C[C@@H](C)C(=O)[C@H](C)[C@H]2NC(=O)O[C@@]21C (stereo partly specified) | 4 µg/mL (≈ 6.23 µM) | > 16 µg/mL |  | 2 µg/mL (≈ 3.12 µM) | > 16 µg/mL |  | 2 µg/mL (≈ 3.12 µM) | > 16 µg/mL | 2 µg/mL (≈ 3.12 µM) | 1 µg/mL |  |  |
| CC[C@H]1OC(=O)C(C)C(=O)[C@H](C)[C@@H](O[C@@H]2O[C@H](C)C[C@H](N(C)C)[C@H]2O)[C@](C)(OC(=O)N/C=C/c2ccc3cccnc3c2)C[C@@H](C)C(=O)[C@H](C)[C@H]2NC(=O)O[C@@]21C (stereo partly specified) | 0.12 µg/mL (≈ 0.151 µM) | 0.03 µg/mL (≈ 0.0377 µM) | 40% | ≤ 0.01 µg/mL | > 16 µg/mL | 0% | 0.03 µg/mL (≈ 0.0377 µM) | 0.25 µg/mL (≈ 0.314 µM) | 2 µg/mL (≈ 2.52 µM) | 0.5 µg/mL |  |  |
| CC[C@H]1OC(=O)C(C)C(=O)[C@H](C)[C@@H](O[C@@H]2O[C@H](C)C[C@H](N(C)C)[C@H]2O)[C@](C)(OC(=O)NCCc2ccccc2)C[C@@H](C)C(=O)[C@H](C)[C@H]2NC(=O)O[C@@]21C (stereo partly specified) | 1 µg/mL (≈ 1.34 µM) | 2 µg/mL (≈ 2.68 µM) |  | 0.25 µg/mL (≈ 0.335 µM) | > 16 µg/mL |  | 0.12 µg/mL (≈ 0.161 µM) | 4 µg/mL (≈ 5.36 µM) | 8 µg/mL (≈ 10.7 µM) | 2 µg/mL |  |  |
| CC[C@H]1OC(=O)C(C)C(=O)[C@H](C)[C@@H](O[C@@H]2O[C@H](C)C[C@H](N(C)C)[C@H]2O)[C@](C)(OC(=O)NCCCc2ccccc2)C[C@@H](C)C(=O)[C@H](C)[C@H]2NC(=O)O[C@@]21C (stereo partly specified) | 2 µg/mL (≈ 2.63 µM) | 1 µg/mL (≈ 1.32 µM) |  | 0.06 µg/mL (≈ 0.079 µM) | > 16 µg/mL |  | 0.12 µg/mL (≈ 0.158 µM) | 2 µg/mL (≈ 2.63 µM) | 16 µg/mL (≈ 21.1 µM) | 8 µg/mL |  |  |
| CC[C@H]1OC(=O)C(C)C(=O)[C@H](C)[C@@H](O[C@@H]2O[C@H](C)C[C@H](N(C)C)[C@H]2O)[C@](C)(OC(=O)N/C=C/c2ccc(-n3ccnc3)cc2)C[C@@H](C)C(=O)[C@H](C)[C@H]2NC(=O)O[C@@]21C (stereo partly specified) | 0.12 µg/mL (≈ 0.148 µM) | 0.12 µg/mL (≈ 0.148 µM) | 60% | ≤ 0.01 µg/mL | > 16 µg/mL | 0% | 0.25 µg/mL (≈ 0.309 µM) | 1 µg/mL (≈ 1.23 µM) | 4 µg/mL (≈ 4.94 µM) | 0.25 µg/mL |  |  |
| CC[C@H]1OC(=O)C(C)C(=O)[C@H](C)[C@@H](O[C@@H]2O[C@H](C)C[C@H](N(C)C)[C@H]2O)[C@](C)(OC(=O)N/C=C/c2ccc(-c3cnccn3)cc2)C[C@@H](C)C(=O)[C@H](C)[C@H]2NC(=O)O[C@@]21C (stereo partly specified) | 0.12 µg/mL (≈ 0.146 µM) | 0.06 µg/mL (≈ 0.073 µM) | 100% | 0.03 µg/mL (≈ 0.0365 µM) | > 16 µg/mL | 62% | 0.12 µg/mL (≈ 0.146 µM) | 0.25 µg/mL (≈ 0.304 µM) | 4 µg/mL (≈ 4.87 µM) | 0.25 µg/mL | 4.8 mg/kg | 17 mg/kg |
| CC[C@H]1OC(=O)C(C)C(=O)[C@H](C)[C@@H](O[C@@H]2O[C@H](C)C[C@H](N(C)C)[C@H]2O)[C@](C)(OC(=O)NCc2ccccc2)C[C@@H](C)C(=O)[C@H](C)[C@H]2NC(=O)O[C@@]21C (stereo partly specified) | 4 µg/mL (≈ 5.47 µM) | 8 µg/mL (≈ 10.9 µM) |  | 1 µg/mL (≈ 1.37 µM) | > 16 µg/mL |  | 0.25 µg/mL (≈ 0.342 µM) | > 16 µg/mL | 16 µg/mL (≈ 21.9 µM) | 8 µg/mL |  |  |
| CC[C@H]1OC(=O)C(C)C(=O)[C@H](C)[C@@H](O[C@@H]2O[C@H](C)C[C@H](N(C)C)[C@H]2O)[C@](C)(OC(=O)N/C=C/c2ccc(-c3ccncc3)cc2)C[C@@H](C)C(=O)[C@H](C)[C@H]2NC(=O)O[C@@]21C (stereo partly specified) | 0.5 µg/mL (≈ 0.609 µM) | 0.5 µg/mL (≈ 0.609 µM) |  | 0.03 µg/mL (≈ 0.0365 µM) | > 16 µg/mL |  | 0.12 µg/mL (≈ 0.146 µM) | 2 µg/mL (≈ 2.44 µM) | 8 µg/mL (≈ 9.74 µM) | 2 µg/mL |  |  |
| CC[C@H]1OC(=O)C(C)C(=O)[C@H](C)[C@@H](O[C@@H]2O[C@H](C)C[C@H](N(C)C)[C@H]2O)[C@](C)(OC(=O)N/C=C/c2ccc(-c3ncccn3)cc2)C[C@@H](C)C(=O)[C@H](C)[C@H]2NC(=O)O[C@@]21C (stereo partly specified) | 0.12 µg/mL (≈ 0.146 µM) | 0.06 µg/mL (≈ 0.073 µM) | 100% | 0.03 µg/mL (≈ 0.0365 µM) | > 16 µg/mL | 40% | 0.06 µg/mL (≈ 0.073 µM) | 0.12 µg/mL (≈ 0.146 µM) | 4 µg/mL (≈ 4.87 µM) | 0.25 µg/mL | 1.8 mg/kg | 15 mg/kg |
| CC[C@H]1OC(=O)C(C)C(=O)[C@H](C)[C@@H](O[C@@H]2O[C@H](C)C[C@H](N(C)C)[C@H]2O)[C@](C)(OC(=O)Nc2ccccc2)C[C@@H](C)C(=O)[C@H](C)[C@H]2NC(=O)O[C@@]21C (stereo partly specified) | 2 µg/mL (≈ 2.79 µM) | 8 µg/mL (≈ 11.1 µM) |  | 0.03 µg/mL (≈ 0.0418 µM) | > 16 µg/mL |  | 0.06 µg/mL (≈ 0.0836 µM) | > 16 µg/mL | 8 µg/mL (≈ 11.1 µM) | 1 µg/mL |  |  |
| CC[C@H]1OC(=O)C(C)C(=O)[C@H](C)[C@@H](O[C@@H]2O[C@H](C)C[C@H](N(C)C)[C@H]2O)[C@](C)(OC(=O)N/C=C/c2ccccc2)C[C@@H](C)C(=O)[C@H](C)[C@H]2NC(=O)O[C@@]21C (stereo partly specified) | 0.25 µg/mL (≈ 0.336 µM) | 0.5 µg/mL (≈ 0.672 µM) |  | 0.06 µg/mL (≈ 0.0807 µM) | > 16 µg/mL |  | 0.06 µg/mL (≈ 0.0807 µM) | 4 µg/mL (≈ 5.38 µM) | 4 µg/mL (≈ 5.38 µM) | 2 µg/mL |  |  |
| CC[C@H]1OC(=O)C(C)C(=O)[C@H](C)[C@@H](O[C@@H]2O[C@H](C)C[C@H](N(C)C)[C@H]2O)[C@](C)(OC(=O)N/C=C/c2ccc(-c3cccnc3)cc2)C[C@@H](C)C(=O)[C@H](C)[C@H]2NC(=O)O[C@@]21C (stereo partly specified) | 0.25 µg/mL (≈ 0.305 µM) | 0.12 µg/mL (≈ 0.146 µM) |  | 0.03 µg/mL (≈ 0.0365 µM) | > 16 µg/mL |  | 0.25 µg/mL (≈ 0.305 µM) | 1 µg/mL (≈ 1.22 µM) | 4 µg/mL (≈ 4.87 µM) | 1 µg/mL |  |  |
| CC[C@H]1OC(=O)C(C)C(=O)[C@H](C)[C@@H](O[C@@H]2O[C@H](C)C[C@H](N(C)C)[C@H]2O)[C@](C)(OC(=O)N/C=C/c2ccc(-n3cccn3)cc2)C[C@@H](C)C(=O)[C@H](C)[C@H]2NC(=O)O[C@@]21C (stereo partly specified) | 0.12 µg/mL (≈ 0.148 µM) | 0.06 µg/mL (≈ 0.0741 µM) | 80% | 0.03 µg/mL (≈ 0.037 µM) | > 16 µg/mL | 60% | 0.06 µg/mL (≈ 0.0741 µM) | 0.12 µg/mL (≈ 0.148 µM) | 4 µg/mL (≈ 4.94 µM) | 0.25 µg/mL | 7.1 mg/kg | > 30 mg/kg |
| CC[C@H]1OC(=O)[C@H](C)[C@@H](O[C@H]2C[C@@](C)(OC)[C@@H](O)[C@H](C)O2)[C@H](C)[C@@H](O[C@@H]2O[C@H](C)C[C@H](N(C)C)[C@H]2O)[C@](C)(O)C[C@@H](C)C(=O)[C@H](C)[C@@H](O)[C@]1(C)O [ERYTHROMYCIN] | 0.5 µg/mL (≈ 0.681 µM) | > 16 µg/mL |  | 0.06 µg/mL (≈ 0.0818 µM) | > 16 µg/mL |  | 4 µg/mL (≈ 5.45 µM) | > 16 µg/mL | 4 µg/mL (≈ 5.45 µM) | 0.06 µg/mL |  |  |
| CC[C@H]1OC(=O)[C@H](C)C(=O)[C@H](C)[C@@H](O[C@@H]2O[C@H](C)C[C@H](N(C)C)[C@H]2O)[C@](C)(OC)C[C@@H](C)C(=O)[C@H](C)[C@H]2N(CCCCn3cnc(-c4cccnc4)c3)C(=O)O[C@]12C [TELITHROMYCIN] | 0.12 µg/mL (≈ 0.148 µM) | 0.06 µg/mL (≈ 0.0739 µM) |  | ≤ 0.01 µg/mL | > 16 µg/mL |  | 0.12 µg/mL (≈ 0.148 µM) | 0.25 µg/mL (≈ 0.308 µM) | 2 µg/mL (≈ 2.46 µM) | 0.5 µg/mL | 4.4 mg/kg | 15 mg/kg |
